According to ChEMBL document CHEMBL5126594, “Entry inhibition of hepatitis B virus using cyclosporin O derivatives with peptoid side chain incorporation” (Bioorg Med Chem, 2022):
Square brackets hold non-standard residues; d marks the D form. Peptide text beside a SMILES is read from it. NMeL = CN[C@@H](CC(C)C)C(=O)O; NMeV = CN[C@H](C(=O)O)C(C)C; Nva = CCC[C@H](N)C(=O)O; Sar = CNCC(=O)O

Assays:
CYP2C9 = CYP2C9 (Homo sapiens, UniProt P11712); assay: Inhibition of human CYP2C9 at 10 uM preincubated for 10 mins followed by NADPH addition and measured after 20 mins by luciferin reagent based luminescence analysis; format: ADME; details: time 30 min
Hepatitis B virus [1] = assay: Antiviral activity against Hepatitis B virus infected in human HepG2 cells expressing NTCP assessed as inhibition of viral entry by measuring intracellular HBV DNA at 1 uM preincubated with compound for 2 hrs followed by viral infection and measured after 3 hrs by qPCR analysis relative to control; format: functional; details: time 5 hrs
Hepatitis B virus [2] = assay: Antiviral activity against Hepatitis B virus infected in human HepG2 cells expressing NTCP assessed as inhibition of viral entry by measuring intracellular HBV DNA preincubated with compound for 2 hrs followed by viral infection and measured after 3 hrs by qPCR analysis; format: functional, organism-based
[3] = Cytotoxicity against human HepG2 cells assessed as reduction in cell viability incubated for 24 hrs by MTS assay; format: toxicity, cell-based; details: read-out: LC50
CYP1A2 = biological target: T1, CYP1A2 (Homo sapiens, UniProt P05177); assay: Inhibition of human CYP1A2 at 10 uM preincubated for 10 mins followed by NADPH addition and measured after 20 mins by luciferin reagent based luminescence analysis; format: ADME; details: time 30 min
T1 sequence (P05177 whole entry): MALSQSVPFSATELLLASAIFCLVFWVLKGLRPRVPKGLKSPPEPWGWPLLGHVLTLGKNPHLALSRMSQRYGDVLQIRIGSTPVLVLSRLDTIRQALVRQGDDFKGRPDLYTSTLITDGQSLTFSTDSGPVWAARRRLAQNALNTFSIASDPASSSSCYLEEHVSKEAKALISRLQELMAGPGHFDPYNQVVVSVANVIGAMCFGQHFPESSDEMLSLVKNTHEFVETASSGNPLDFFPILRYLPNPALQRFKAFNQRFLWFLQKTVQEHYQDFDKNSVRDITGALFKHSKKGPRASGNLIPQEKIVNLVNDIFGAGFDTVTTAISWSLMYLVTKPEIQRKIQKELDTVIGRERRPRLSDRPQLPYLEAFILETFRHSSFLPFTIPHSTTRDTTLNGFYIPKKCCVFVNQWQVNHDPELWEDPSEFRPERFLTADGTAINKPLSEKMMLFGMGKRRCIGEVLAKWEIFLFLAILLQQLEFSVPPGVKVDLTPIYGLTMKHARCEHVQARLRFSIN

Chain of CYP2C9 (P11712 whole entry): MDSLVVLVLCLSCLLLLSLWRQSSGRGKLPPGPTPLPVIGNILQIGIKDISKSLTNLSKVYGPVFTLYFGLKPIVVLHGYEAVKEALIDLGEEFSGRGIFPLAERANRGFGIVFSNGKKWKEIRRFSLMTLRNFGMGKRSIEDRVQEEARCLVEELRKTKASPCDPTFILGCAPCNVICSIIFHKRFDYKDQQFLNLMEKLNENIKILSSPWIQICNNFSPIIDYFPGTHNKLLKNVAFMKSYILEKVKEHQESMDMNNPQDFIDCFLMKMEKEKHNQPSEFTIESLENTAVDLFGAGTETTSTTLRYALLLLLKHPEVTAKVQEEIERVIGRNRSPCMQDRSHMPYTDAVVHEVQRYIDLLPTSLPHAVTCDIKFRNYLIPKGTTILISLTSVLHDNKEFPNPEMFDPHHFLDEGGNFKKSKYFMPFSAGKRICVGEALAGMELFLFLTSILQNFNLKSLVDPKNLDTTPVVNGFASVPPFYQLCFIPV

| SMILES | inhibition at 1 µM (Hepatitis B virus [1]) | also measured |
| --- | --- | --- |
| Nc1ccc(S(=O)(=O)Nc2ccnn2-c2ccccc2)cc1 [SULFAPHENAZOLE] |  | inhibition at 20 min, 10 µM (CYP2C9): 94.4% |
| CCC[C@@H]1NC(=O)[C@H](CC(C)C)N(C)C(=O)[C@H](CC(C)C)N(C)C(=O)[C@H](CC(C)C)N(C)C(=O)CN(CC(C)C)C(=O)[C@@H](C)NC(=O)[C@@H](CCC(N)=O)NC(=O)[C@H](CC(C)C)N(C)C(=O)[C@H](C(C)C)NC(=O)[C@H](CC(C)C)N(C)C(=O)CN(C)C1=O | 62% |  |
| CCC[C@@H]1NC(=O)[C@H](CC(C)C)N(C)C(=O)[C@H](CC(C)C)N(C)C(=O)[C@H](CC(C)C)N(C)C(=O)CN(Cc2ccccc2)C(=O)[C@@H](C)NC(=O)[C@@H](CCC(N)=O)NC(=O)[C@H](CC(C)C)N(C)C(=O)[C@H](C(C)C)NC(=O)[C@H](CC(C)C)N(C)C(=O)CN(C)C1=O | 69% |  |
| CCC[C@@H]1NC(=O)[C@H](CC(C)C)N(C)C(=O)[C@H](CC(C)C)N(C)C(=O)[C@H](CC(C)C)N(C)C(=O)CN(CCC(=O)O)C(=O)[C@@H](C)NC(=O)[C@@H](CCC(N)=O)NC(=O)[C@H](CC(C)C)N(C)C(=O)[C@H](C(C)C)NC(=O)[C@H](CC(C)C)N(C)C(=O)CN(C)C1=O | 84% | IC50 (Hepatitis B virus [2]): 450 nM; CC50 at 24 h [3]: > 200000 nM |
| CCC[C@@H]1NC(=O)[C@H](CC(C)C)N(C)C(=O)[C@H](CC(C)C)N(C)C(=O)[C@H](CC(C)C)N(C)C(=O)[C@H](CC(C)C)N(C)C(=O)[C@@H](C)NC(=O)[C@@H](CCC(N)=O)NC(=O)[C@H](CC(C)C)N(C)C(=O)[C@H](C(C)C)NC(=O)CN(CC(C)C)C(=O)CN(C)C1=O | 85% | IC50 (Hepatitis B virus [2]): 420 nM |
| CCC[C@@H]1NC(=O)[C@H](CC(C)C)N(C)C(=O)[C@H](CC(C)C)N(C)C(=O)[C@H](CC(C)C)N(C)C(=O)[C@H](CC(C)C)N(C)C(=O)[C@@H](C)NC(=O)[C@@H](CCC(N)=O)NC(=O)[C@H](CC(C)C)N(C)C(=O)[C@H](C(C)C)NC(=O)CN(CCO)C(=O)CN(C)C1=O | 66% |  |
| CCC[C@@H]1NC(=O)[C@H](CC(C)C)N(C)C(=O)[C@H](CC(C)C)N(C)C(=O)[C@H](CC(C)C)N(C)C(=O)[C@H](CC(C)C)N(C)C(=O)[C@@H](C)NC(=O)[C@H](CCC(N)=O)NC(=O)[C@H](CC(C)C)N(C)C(=O)[C@H](C(C)C)NC(=O)CN(C)C(=O)CN(C)C1=O | 86% | IC50 (Hepatitis B virus [2]): 440 nM |
| CCC[C@@H]1NC(=O)[C@H](CC(C)C)N(C)C(=O)[C@H](CC(C)C)N(C)C(=O)[C@H](CC(C)C)N(C)C(=O)[C@H](CC(C)C)N(C)C(=O)[C@@H](C)NC(=O)[C@@H](CCC(N)=O)NC(=O)[C@H](CC(C)C)N(C)C(=O)[C@H](C(C)C)NC(=O)CN(CCCCN)C(=O)CN(C)C1=O | 71% |  |
| CCC[C@@H]1NC(=O)[C@H](CC(C)C)N(C)C(=O)[C@H](CC(C)C)N(C)C(=O)CN(CCCCN)C(=O)[C@H](CC(C)C)N(C)C(=O)[C@@H](C)NC(=O)[C@@H](CCC(N)=O)NC(=O)[C@H](CC(C)C)N(C)C(=O)[C@H](C(C)C)NC(=O)[C@H](CC(C)C)N(C)C(=O)CN(C)C1=O | 57% |  |
| C/C=C/C[C@@H](C)[C@@H](O)[C@H]1C(=O)N[C@@H](CC)C(=O)N(C)CC(=O)N(C)[C@@H](CC(C)C)C(=O)N[C@@H](C(C)C)C(=O)N(C)[C@@H](CC(C)C)C(=O)N[C@@H](C)C(=O)N[C@H](C)C(=O)N(C)[C@@H](CC(C)C)C(=O)N(C)[C@@H](CC(C)C)C(=O)N(C)[C@@H](C(C)C)C(=O)N1C [CYCLOSPORINE] | 83% | IC50 (Hepatitis B virus [2]): 400 nM |
| CCC[C@@H]1NC(=O)[C@H](CC(C)C)N(C)C(=O)[C@H](CC(C)C)N(C)C(=O)CN(CCOC)C(=O)[C@H](CC(C)C)N(C)C(=O)[C@@H](C)NC(=O)[C@@H](CCC(N)=O)NC(=O)[C@H](CC(C)C)N(C)C(=O)[C@H](C(C)C)NC(=O)[C@H](CC(C)C)N(C)C(=O)CN(C)C1=O | 52% |  |
| CCC[C@@H]1NC(=O)[C@H](CC(C)C)N(C)C(=O)[C@H](CC(C)C)N(C)C(=O)[C@H](CC(C)C)N(C)C(=O)[C@H](CC(C)C)N(C)C(=O)[C@@H](C)NC(=O)[C@@H](CCC(N)=O)NC(=O)[C@H](CC(C)C)N(C)C(=O)[C@H](C(C)C)NC(=O)CN(Cc2ccccc2)C(=O)CN(C)C1=O | 36% |  |
| CCC[C@@H]1NC(=O)[C@H](CC(C)C)N(C)C(=O)[C@H](CC(C)C)N(C)C(=O)CN(C)C(=O)[C@H](CC(C)C)N(C)C(=O)[C@@H](C)NC(=O)[C@@H](CCC(N)=O)NC(=O)[C@H](CC(C)C)N(C)C(=O)[C@H](C(C)C)NC(=O)[C@H](CC(C)C)N(C)C(=O)CN(C)C1=O | 37% |  |
| CCC[C@@H]1NC(=O)[C@H](CC(C)C)N(C)C(=O)[C@H](CC(C)C)N(C)C(=O)CN(CCC(=O)O)C(=O)[C@H](CC(C)C)N(C)C(=O)[C@@H](C)NC(=O)[C@@H](CCC(N)=O)NC(=O)[C@H](CC(C)C)N(C)C(=O)[C@H](C(C)C)NC(=O)[C@H](CC(C)C)N(C)C(=O)CN(C)C1=O | 63% |  |
| CCC[C@@H]1NC(=O)[C@H](CC(C)C)N(C)C(=O)[C@H](CC(C)C)N(C)C(=O)CN(Cc2ccccc2)C(=O)[C@H](CC(C)C)N(C)C(=O)[C@@H](C)NC(=O)[C@@H](CCC(N)=O)NC(=O)[C@H](CC(C)C)N(C)C(=O)[C@H](C(C)C)NC(=O)[C@H](CC(C)C)N(C)C(=O)CN(C)C1=O | 62% |  |
| CCC[C@@H]1NC(=O)[C@H](CC(C)C)N(C)C(=O)[C@H](CC(C)C)N(C)C(=O)[C@H](CC(C)C)N(C)C(=O)CN(CCCCN)C(=O)[C@@H](C)NC(=O)[C@@H](CCC(N)=O)NC(=O)[C@H](CC(C)C)N(C)C(=O)[C@H](C(C)C)NC(=O)[C@H](CC(C)C)N(C)C(=O)CN(C)C1=O | 69% |  |
| CCC[C@@H]1NC(=O)[C@H](CC(C)C)N(C)C(=O)[C@H](CC(C)C)N(C)C(=O)CN(CC(C)C)C(=O)[C@H](CC(C)C)N(C)C(=O)[C@@H](C)NC(=O)[C@@H](CCC(N)=O)NC(=O)[C@H](CC(C)C)N(C)C(=O)[C@H](C(C)C)NC(=O)[C@H](CC(C)C)N(C)C(=O)CN(C)C1=O | 65% |  |
| CCC[C@@H]1NC(=O)[C@H](CC(C)C)N(C)C(=O)[C@H](CC(C)C)N(C)C(=O)[C@H](CC(C)C)N(C)C(=O)CN(CCOC)C(=O)[C@@H](C)NC(=O)[C@@H](CCC(N)=O)NC(=O)[C@H](CC(C)C)N(C)C(=O)[C@H](C(C)C)NC(=O)[C@H](CC(C)C)N(C)C(=O)CN(C)C1=O | 72% |  |
| CCC[C@@H]1NC(=O)[C@H](CC(C)C)N(C)C(=O)[C@H](C(C)C)N(C)C(=O)[C@H](CC(C)C)N(C)C(=O)[C@H](CC(C)C)N(C)C(=O)[C@@H](C)NC(=O)[C@H](C)NC(=O)[C@H](CC(C)C)N(C)C(=O)[C@H](C(C)C)NC(=O)[C@H](CC(C)C)N(C)C(=O)CN(C)C1=O (cyclo(A[dA][NMeL][NMeL][NMeV][NMeL][Nva][Sar][NMeL]V[NMeL])) | 75% | IC50 (Hepatitis B virus [2]): 510 nM; CC50 at 24 h [3]: > 200000 nM |
| CCC[C@@H]1NC(=O)[C@H](CC(C)C)N(C)C(=O)[C@H](C(C)C)N(C)C(=O)[C@H](CC(C)C)N(C)C(=O)[C@H](CC(C)C)N(C)C(=O)[C@@H](C)NC(=O)[C@@H](CCC(N)=O)NC(=O)[C@H](CC(C)C)N(C)C(=O)[C@H](C(C)C)NC(=O)[C@H](CC(C)C)N(C)C(=O)CN(C)C1=O | 57% |  |
| CCC[C@@H]1NC(=O)[C@H](CC(C)C)N(C)C(=O)[C@H](CC(C)C)N(C)C(=O)[C@H](CC(C)C)N(C)C(=O)CN(CCO)C(=O)[C@@H](C)NC(=O)[C@@H](CCC(N)=O)NC(=O)[C@H](CC(C)C)N(C)C(=O)[C@H](C(C)C)NC(=O)[C@H](CC(C)C)N(C)C(=O)CN(C)C1=O | 59% |  |
| CCC[C@@H]1NC(=O)[C@H](CC(C)C)N(C)C(=O)[C@H](CC(C)C)N(C)C(=O)[C@H](CC(C)C)N(C)C(=O)CN(C)C(=O)[C@@H](C)NC(=O)[C@@H](CCC(N)=O)NC(=O)[C@H](CC(C)C)N(C)C(=O)[C@H](C(C)C)NC(=O)[C@H](CC(C)C)N(C)C(=O)CN(C)C1=O | 64% |  |
| CCC[C@@H]1NC(=O)[C@H](CC(C)C)N(C)C(=O)[C@H](CC(C)C)N(C)C(=O)[C@H](CC(C)C)N(C)C(=O)[C@H](CC(C)C)N(C)C(=O)[C@@H](C)NC(=O)[C@@H](CCC(N)=O)NC(=O)[C@H](CC(C)C)N(C)C(=O)[C@H](C(C)C)NC(=O)CN(CCOC)C(=O)CN(C)C1=O | 67% |  |
| CCC[C@@H]1NC(=O)[C@H](CC(C)C)N(C)C(=O)[C@H](CC(C)C)N(C)C(=O)[C@H](CC(C)C)N(C)C(=O)[C@H](CC(C)C)N(C)C(=O)[C@@H](C)NC(=O)[C@@H](CCC(N)=O)NC(=O)[C@H](CC(C)C)N(C)C(=O)[C@H](C(C)C)NC(=O)CN(CCC(=O)O)C(=O)CN(C)C1=O | 61% |  |
| O=c1cc(-c2ccccc2)oc2c1ccc1ccccc12 [ALPHA-NAPHTHOFLAVONE] |  | inhibition at 20 min, 10 µM (CYP1A2): 97.1% |
